In brackets after ≈: the same amount, converted by molar mass.
Key:
Format in all cases: cell-based
N. gonorrhoeae WHO G = assay: Liquid broth MIC in Fastidious broth; conditions: Neisseria gonorrhoeae; N. gonorrhoeae strain WHO G; Fastidious broth; read-out: Minimum Inhibitory Concentration, N. gonorrhoeae WHO G
How it was run: (§1)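 Colonies were swabbed from chocolate agar after 24 h growth and standardised by optical density at 600 nm. Compounds were serially diluted twofold in Fastidious broth, and bacteria added to give 5×10^5 CFU/mL. After about 24 h at 36 °C in 5% CO2, the lowest concentration allowing under 10% growth was taken as MIC.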

[1] = tested on: N. gonorrhoeae ATCC 49226; assay: Liquid broth MIC in Fastidious broth; conditions: Neisseria gonorrhoeae, ATCC49226; N. gonorrhoeae strain ATCC 49226; Fastidious broth; read-out: Minimum Inhibitory Concentration, N. gonorrhoeae ATCC 49226
How it was run: as §1

N. gonorrhoeae WHO Z = assay: Liquid broth MIC in Fastidious broth; conditions: Neisseria gonorrhoeae, read-out: Minimum Inhibitory Concentration, N. gonorrhoeae WHO Z
How it was run: (§2)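 Broth microdilution in Fastidious broth with 2-fold compound series; inoculum from 24 h chocolate agar colonies, 5×10^5 CFU/mL start. Incubated ~24 hours at 36° C, 5% CO2. MIC read visually as lowest concentration giving <10% growth versus full-growth wells; strains carry mosaic PBP2.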

N. gonorrhoeae WHO Q = assay: Liquid broth MIC in Fastidious broth; conditions: Neisseria gonorrhoeae, read-out: Minimum Inhibitory Concentration, N. gonorrhoeae WHO Q
How it was run: as §2

N. gonorrhoeae H041 = assay: Liquid broth MIC in Fastidious broth; conditions: Neisseria gonorrhoeae, H041, read-out: Minimum Inhibitory Concentration, N. gonorrhoeae H041
How it was run: as §2

N. gonorrhoeae FA1090 = assay: Liquid broth MIC in Fastidious broth; conditions: Neisseria gonorrhoeae; N. gonorrhoeae strain FA1090; Fastidious broth; read-out: Minimum Inhibitory Concentration, N. gonorrhoeae FA1090
How it was run: as §1

N. gonorrhoeae WHO L = assay: Liquid broth MIC in Fastidious broth; conditions: Neisseria gonorrhoeae; N. gonorrhoeae strain WHO L; Fastidious broth; read-out: Minimum Inhibitory Concentration, N. gonorrhoeae WHO L
How it was run: as §1

N. gonorrhoeae WHO K = assay: Liquid broth MIC in Fastidious broth; conditions: Neisseria gonorrhoeae, read-out: Minimum Inhibitory Concentration, N. gonorrhoeae WHO K
How it was run: as §2

A. baumannii ATCC 19606 = assay: Broth microdilution MIC in CAMHB; conditions: Acinetobacter baumannii, ATCC19606; MHB; read-out: Minimum Inhibitory Concentration, A. baumannii ATCC 19606
How it was run: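 CLSI broth microdilution in CAMHB: 2-fold compound dilutions inoculated at 2-8×10^5 CFU/mL from 3-5 h log-phase cultures. Incubated at 37 °C for 16-20 h (Enterobacteriaceae, Pseudomonas); MIC read visually as lowest concentration without growth. Strains include hyper-permeable and efflux-deficient mutants.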

[2] = tested on: K. pneumoniae SI-117 producing VIM-1; assay: Broth microdilution MIC in CAMHB; conditions: Klebsiella pneumoniae, read-out: Minimum Inhibitory Concentration, K. pneumoniae SI-117
How it was run: (§3)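 Per CLSI broth microdilution, colonies were grown 3-5 h at 37° C in cation-adjusted Mueller Hinton broth, then diluted to a starting inoculum of 2-8×10^5 CFU/mL against 2-fold serial compound dilutions. Plates were incubated 16-20 h at 37° C, and MIC was read visually as the lowest concentration with no growth.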

E. coli D22 = assay: Broth microdilution MIC in CAMHB; conditions: Escherichia coli; E. coli D22 (hyper-permeable); MHB; read-out: Minimum Inhibitory Concentration, E. coli D22
How it was run: as §3

E. coli AG100 = assay: Broth microdilution MIC in CAMHB; conditions: Escherichia coli; E. coli AG100 (wild-type parent); MHB; read-out: Minimum Inhibitory Concentration, E. coli AG100
How it was run: as §3

E. coli 901C = assay: Broth microdilution MIC in CAMHB; conditions: Escherichia coli; E. coli 901C (hyper-permeable); MHB; read-out: Minimum Inhibitory Concentration, E. coli 901C
How it was run: as §3

Structure (SMILES)	MIC (N. gonorrhoeae WHO G) [µg/mL]	MIC [1] [µg/mL]	MIC (N. gonorrhoeae WHO Z) [µg/mL]	MIC (N. gonorrhoeae WHO Q) [µg/mL]	MIC (N. gonorrhoeae H041) [µg/mL]	MIC (N. gonorrhoeae FA1090) [µg/mL]	MIC (N. gonorrhoeae WHO L) [µg/mL]	MIC (N. gonorrhoeae WHO K) [µg/mL]	MIC (A. baumannii ATCC 19606) [µg/mL]	MIC [2] [µg/mL]	MIC (E. coli D22) [µg/mL]	MIC (E. coli AG100) [µg/mL]	MIC (E. coli 901C) [µg/mL]
NCCN1CCN(C(=O)N[C@@H](C(=O)N[C@H]2Cc3cccc(C(=O)O)c3OB2O)c2ccc(O)c(F)c2F)C(=O)C1=O (single isomer, unassigned) [Example 170]	4 to 8 (≈ 6.95 to 13.9 µM)	4 to 8 (≈ 6.95 to 13.9 µM)	> 64	> 64	> 64	0.25 to 0.5 (≈ 0.435 to 0.869 µM)	> 64	> 64	> 128	32 to 64 (≈ 55.6 to 111 µM)	2 to 4 (≈ 3.48 to 6.95 µM)	8 to 16 (≈ 13.9 to 27.8 µM)	0.5 to 1 (≈ 0.869 to 1.74 µM)
NS(=O)(=O)c1cccc(C(NC(=O)N2CCN(CCF)C(=O)C2=O)C(=O)N[C@H]2Cc3cccc(C(=O)O)c3OB2O)c1 (stereo partly drawn) [Example 100, (3R)-3-(2-(4-(2-fluoroethyl)-2,3-dioxopiperazine-1-carboxamido)-2-(3-sulfamoylphenyl)acetamido)-2-hydroxy-3,4-dihydro-2H-benzo[e][1,2]oxaborinine-8-carboxylic acid]	1 to 2 (≈ 1.65 to 3.3 µM)	16 to 32 (≈ 26.4 to 52.9 µM)	16 to 32 (≈ 26.4 to 52.9 µM)	16 to 32 (≈ 26.4 to 52.9 µM)	16 to 32 (≈ 26.4 to 52.9 µM)	0.25 to 0.5 (≈ 0.413 to 0.826 µM)	> 64	16 to 32 (≈ 26.4 to 52.9 µM)	> 128	32 to 64 (≈ 52.9 to 106 µM)	2 to 4 (≈ 3.3 to 6.61 µM)	32 to 64 (≈ 52.9 to 106 µM)	< 0.25
CCN1CCN(C(=O)NC(C(=O)N[C@H]2Cc3cccc(C(=O)O)c3OB2O)c2cc(Cl)c(O)cc2F)C(=O)C1=O (stereo partly drawn) [Example 101, (3R)-3-(2-(5-chloro-2-fluoro-4-hydroxyphenyl)-2-(4-ethyl-2,3-dioxopiperazine-1-carboxamido)acetamido)-2-hydroxy-3,4-dihydro-2H-benzo[e][1,2]oxaborinine-8-carboxylic acid]	1 to 2 (≈ 1.73 to 3.47 µM)	4 to 8 (≈ 6.94 to 13.9 µM)	16 to 32 (≈ 27.7 to 55.5 µM)	16 to 32 (≈ 27.7 to 55.5 µM)	16 to 32 (≈ 27.7 to 55.5 µM)	0.25 to 0.5 (≈ 0.433 to 0.867 µM)	16 to 32 (≈ 27.7 to 55.5 µM)	16 to 32 (≈ 27.7 to 55.5 µM)	> 128	> 128	2 to 4 (≈ 3.47 to 6.94 µM)	32 to 64 (≈ 55.5 to 111 µM)	< 0.25
CCN1CCN(C(=O)NC(C(=O)N[C@H]2Cc3cccc(C(=O)O)c3OB2O)c2cc(F)c(O)cc2Cl)C(=O)C1=O (stereo partly drawn) [Example 103, (3R)-3-(2-(2-chloro-5-fluoro-4-hydroxyphenyl)-2-(4-ethyl-2,3-dioxopiperazine-1-carboxamido)acetamido)-2-hydroxy-3,4-dihydro-2H-benzo[e][1,2]oxaborinine-8-carboxylic acid]	1 to 2 (≈ 1.73 to 3.47 µM)	16 to 32 (≈ 27.7 to 55.5 µM)	16 to 32 (≈ 27.7 to 55.5 µM)	16 to 32 (≈ 27.7 to 55.5 µM)	16 to 32 (≈ 27.7 to 55.5 µM)	0.25 to 0.5 (≈ 0.433 to 0.867 µM)	> 64	16 to 32 (≈ 27.7 to 55.5 µM)	> 128	> 128	2 to 4 (≈ 3.47 to 6.94 µM)	32 to 64 (≈ 55.5 to 111 µM)	< 0.25
CCN1CCN(C(=O)NC(C(=O)N[C@H]2Cc3cccc(C(=O)O)c3OB2O)c2cc(F)c(O)cc2F)C(=O)C1=O (stereo partly drawn) [Example 104, (3R)-3-(2-(2,5-difluoro-4-hydroxyphenyl)-2-(4-ethyl-2,3-dioxopiperazine-1-carboxamido)acetamido)-2-hydroxy-3,4-dihydro-2H-benzo[e][1,2]oxaborinine-8-carboxylic acid]	1 to 2 (≈ 1.78 to 3.57 µM)	4 to 8 (≈ 7.14 to 14.3 µM)	4 to 8 (≈ 7.14 to 14.3 µM)	4 to 8 (≈ 7.14 to 14.3 µM)	16 to 32 (≈ 28.6 to 57.1 µM)	0.25 to 0.5 (≈ 0.446 to 0.892 µM)	16 to 32 (≈ 28.6 to 57.1 µM)	16 to 32 (≈ 28.6 to 57.1 µM)	> 128	32 to 64 (≈ 57.1 to 114 µM)	2 to 4 (≈ 3.57 to 7.14 µM)	32 to 64 (≈ 57.1 to 114 µM)	< 0.25
